The subject of one series is rats. The note with it: intravenous and intramuscular administration; cited from earlier work.
For series [1], the system named is Murine bone marrow-derived dendritic cells. Briefly: IL-12 p40 production by murine bone marrow-derived dendritic cells (ELISA). It is filed as cell-based, mice. The conditions noted are these: DC 10^6 cells/ml, 0.5-10 μg/ml PBS, supernatants after 24 hours, FIG. 2. As to the method:
Murine bone marrow-derived dendritic cells (DC) were prepared by culturing bone marrow cells from the femur and tibia of mice in RPMI medium supplemented with 10% supernatant from a granulocyte-monocyte colony-stimulating factor-secreting cell line.
On day 7 of culture, cells were collected, washed, and resuspended in RPMI medium. DC (10^6 cells/ml) were cultured with AS101 or AS103 (0.5-10 μg/ml PBS), or with CpG. Supernatants were collected after 24 hours for analysis of IL-12 p40 production. Cell supernatants were determined using commercially available ELISA kits (R&D Systems).

The test system of series [2] is freshly isolated peripheral blood human monocytes. Briefly: IL-12 p40 production by human monocytes (ELISA). The class given is cell-based. The conditions noted are these: adherent PBMCs from a healthy donor, 0.5-2 μg/ml PBS, 24 hours incubation, FIG. 1. Here is the method: Adherent Peripheral Blood Mononuclear Cells (PBMCs) from a tuberculin-negative healthy donor were incubated with AS101 or AS103 (0.5-2 μg/ml PBS) or E. coli lipopolysaccharide (LPS) (1 ng/ml PBS; Sigma) for 24 hours. Supernatants were collected after 28 hours for analysis of IL-12 production. Cell supernatants were determined using commercially available Enzyme-Linked Immunosorbent Assay (ELISA) kits (R&D Systems). Supernatants were tested for IL-12p40 by ELISA kit (Endogene).
A general note: An ELISA detects its analyte on a solid surface through an enzyme-linked reagent.

Series [3] deals with KLH-specific IgG1 and IgG2a. Briefly: Serum antibody responses to KLH in immunized mice (ELISA titers). It is filed as in vivo. As to the method: Serum was obtained from mice immunized with depyrogenated keyhole limpet hemocyanin (KLH) (5 μg; Calbiochem, La Jolla, Calif.); with KLH plusphosphorothioate-stabilized oligodeoxynucleotide-containing CpG motifs (CpG-ODN) (5′-GCTAGACGTTAGCGT-3′), synthesized by Sigma-Genosys Ltd., Cambridge, United Kingdom; with KLH, plus CpG, plus AS101 (10 μg/ml PBS); or with Dulbecco's PBS alone (Sigma, Poole, United Kingdom), each in a final volume of 50 μl PBS.
On day 7 after immunization, mice were sacrificed by cervical dislocation, and serum and popliteal lymph nodes were collected. Titers of KLH-specific IgG1 and IgG2a in the serum of the immunized mice were determined by ELISA, and analysed for the presence of antibody subclasses IgG1 and IgG2a.

Strand notation (5' to 3'): a small letter for the sugar, then the base; units joined by * are phosphorothioate-linked, units joined directly phosphodiester-linked; [ ] holds rarer units or linkages, { } end groups; capitals alone tell only the bases. d = 2'-deoxy (DNA)

For the molecule `Cl[TeH]1(Cl)(Cl)OCCO1` [AS101, ammonium trichloro(dioxyethylene-O,O′)tellurate], the “LD50 values relative to the immunologically effective dose” value with rats is on record as 500-1000 folds. Also, the “IL-12 p40 production” value in series [1] and in series [2] was “potent inducer” each time. Also, the “KLH-specific IgG1 response to KLH plus CpG on addition of the compound” value in series [3] (10 μg/ml PBS added to KLH plus CpG, day 7 after immunization, FIG. 3a) was “no further increase”. In addition, in series [3] (10 μg/ml PBS added to KLH plus CpG, day 7 after immunization, FIG. 3b), the “production of KLH-specific IgG2a in response to KLH plus CpG on addition of the compound” value is given as “significantly increased”.

As for `Cl[Te]1(Cl)OCCO1` [AS 103], in series [2], the “IL-12 p40 production” value is given as “very low response”.

For the molecule “CpG: phosphorothioate-stabilized oligodeoxynucleotide-containing CpG motifs (CpG-ODN) (5′-GCTAGACGTTAGCGT-3′), synthesized by Sigma-Genosys (DNA dG*dC*dT*dA*dG*dA*dC*dG*dT*dT*dA*dG*dC*dG*dT) [reference compound]”, the “KLH-specific antibody titer (IgG1 and IgG2a) on use together with KLH” value in series [3] (KLH 5 μg plus CpG versus KLH alone, day 7, FIGS. 3a and 3b) is “increased”.

Values taken from patent publication US20080260770A1, “Use of Tellurium Compounds as Adjuvants” (BIOMAS LTD., priority 2004, published 2008).
